Patent US10633419B2, “Immunomodulators” (BRISTOL-MYERS SQUIBB COMPANY, priority 2014, dated 2020)
pIC50: −log10 of the molar value. Positions of bridges follow the written chain, without caps; N, C: chain ends. Non-standard residues stand in square brackets, D forms with d. Residues, ends and D or L forms follow the SMILES beside them. *: point of attachment. X6 = O=C(O)CCCCCCCCCCCCCCCCC(=O)N[C@@H](CCC(=O)NCCCOCCOCCOCCCN*)C(=O)O; X13 = O=C(O)CCCCCCCCCCCCCCC(=O)N[C@@H](CCC(=O)NCCCOCCOCCOCCCN*)C(=O)O; X25 = CCCCCCCC[C@@H](NC(=O)CCC(=O)NCCCOCCOCCOCCCN*)C(=O)O; Trp(1-CH2COOH) = N[C@@H](Cc1cn(CC(=O)O)c2ccccc12)C(=O)O; d(cisHyp) = O=C(O)[C@H]1C[C@@H](O)CN1; Bta = N[C@@H](Cc1csc2ccccc12)C(=O)O; PEG6 = NCCOCCOCCOCCOCCOCCOCCC(=O)O; Aha = [N-]=[N+]=NCC[C@H](N)C(=O)O; Palmitoyl = CCCCCCCCCCCCCCCC(=O)*; Hyp = O=C(O)[C@@H]1C[C@@H](O)CN1; NMeF = CN[C@@H](Cc1ccccc1)C(=O)O; NMeE = CN[C@@H](CCC(=O)O)C(=O)O; Undecanoyl = CCCCCCCCCCC(=O)*; NMeNle = CCCC[C@H](NC)C(=O)O; NMeA = CN[C@@H](C)C(=O)O; Pra = C#CC[C@H](N)C(=O)O; Dab = NCC[C@H](N)C(=O)O; Dap = NC[C@H](N)C(=O)O; Sar = CNCC(=O)O

Target: T1, PD-L1 (Homo sapiens, UniProt Q9NZQ7)
T1 construct: hPDL1(19-239)-TVMV-His; made in house; host or cells: HEK293T
T1 sequence (Q9NZQ7 with tags, fused parts or gaps): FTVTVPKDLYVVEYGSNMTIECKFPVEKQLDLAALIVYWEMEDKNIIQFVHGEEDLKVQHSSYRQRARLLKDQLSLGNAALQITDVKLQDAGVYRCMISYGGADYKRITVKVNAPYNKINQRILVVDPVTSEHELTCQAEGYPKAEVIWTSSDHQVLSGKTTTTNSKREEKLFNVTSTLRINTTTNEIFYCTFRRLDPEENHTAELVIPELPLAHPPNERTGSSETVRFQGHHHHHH
Assay: PD-1/PD-L1 Homogenous Time-Resolved Fluorescence (HTRF) binding assay (PD-1-Ig/PD-L1-His)
Details: not given
Summary of the method: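 Inhibitors pre-incubated 15 min with PD-L1-His (10 nM final), then PD-1-Ig (20 nM final) added for 15 min in dPBS/0.1% BSA/0.05% Tween-20. Eu-cryptate anti-Ig (1 nM) and APC anti-His (20 nM) added, 30 min equilibration, 665/620 nm HTRF ratio read.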

Row | SMILES | pIC50
1 | CCCC[C@H]1C(=O)N(C)[C@@H](CCCC)C(=O)N[C@@H](CCC(=O)O)C(=O)N[C@H](C(=O)NCC(=O)N[C@@H](Cc2cn(CCOCCOCCOCCOC(=O)CCC(=O)Oc3c(C)c(C)c4c(c3C)CC[C@@](C)(CCC[C@H](C)CCC[C@H](C)CCCC(C)C)O4)nn2)C(=O)NCC(N)=O)CSCC(=O)N[C@@H](Cc2ccc(O)cc2)C(=O)N(C)[C@@H](C)C(=O)N[C@@H](CC(=O)O)C(=O)N2CCC[C@H]2C(=O)N[C@@H](Cc2c[nH]cn2)C(=O)N[C@@H](CCCCN)C(=O)N2C[C@H](O)C[C@H]2C(=O)N[C@@H](Cc2c[nH]c3ccccc23)C(=O)N[C@@H](CCCCN)C(=O)N[C@@H](Cc2c[nH]c3ccccc23)C(=O)N1C [Example 14060] | 5.80 to 7.00

Same assay, conditions: inhibition of PD-1-Ig binding to PD-L1-TVMV-His; value given as number; read-out: HTRF IC50

Row | pIC50 | SMILES
2 | 6.34 | CCCCCCCCCCC(=O)NCCCC[C@H](NC(=O)CCOCCOCCOCCOCCOCCOCCNC(=O)[C@@H]1CSCC(=O)N[C@@H](Cc2ccc(O)cc2)C(=O)N(C)[C@@H](C)C(=O)N[C@@H](CC(N)=O)C(=O)N2CCC[C@H]2C(=O)N[C@@H](CN)C(=O)N[C@@H](CCC(N)=O)C(=O)N2C[C@H](O)C[C@@H]2C(=O)N[C@@H](Cc2c[nH]c3ccccc23)C(=O)N[C@@H](CO)C(=O)N[C@@H](Cc2cn(CC(=O)O)c3ccccc23)C(=O)N(C)[C@@H](CCCC)C(=O)N(C)[C@@H](CCCC)C(=O)N[C@@H](CC(C)C)C(=O)N1)C(=O)O [Example 11062] ({CH2CO}-Y[NMeA]NP[Dap]Q[d(cisHyp)]WS[Trp(1-CH2COOH)][NMeNle][NMeNle]LC[PEG6]K(Undecanoyl)-OH; thioether N-14)

Same assay, conditions: inhibition of PD-1-Ig binding to PD-L1-TVMV-His; value given as range class; read-out: HTRF IC50

Row | pIC50 | SMILES
3 | 7.00 to 8.00 | CCCC[C@H]1C(=O)N(C)[C@@H](CCCC)C(=O)N[C@@H](CC(C)C)C(=O)N[C@H](C(=O)NCCOCCOCCOCCOCCOCCOCCC(=O)O)CSCC(=O)N[C@@H](Cc2ccc(O)cc2)C(=O)N(C)[C@@H](C)C(=O)N[C@@H](CC(N)=O)C(=O)N2CCC[C@H]2C(=O)N[C@@H](CO)C(=O)N[C@@H](CCC(N)=O)C(=O)N2C[C@H](O)C[C@@H]2C(=O)N[C@@H](Cc2c[nH]c3ccccc23)C(=O)N[C@@H](CO)C(=O)N[C@@H](Cc2cn(CC(=O)O)c3ccccc23)C(=O)N1C [Example 11045] ({CH2CO}-Y[NMeA]NPSQ[d(cisHyp)]WS[Trp(1-CH2COOH)][NMeNle][NMeNle]LC[PEG6]-OH; thioether N-14)
4 | 7.00 to 8.00 | CCCC[C@H]1C(=O)N(C)[C@@H](CCCC)C(=O)N[C@@H](CC(C)C)C(=O)N[C@H](C(=O)NCC(=O)N[C@@H](CCC(=O)NCCCOCCOCCOCCCNC(=O)CC[C@H](NC(=O)CCCCCCCCCCCCCCC(=O)O)C(=O)O)C(=O)O)CSCC(=O)N[C@@H](Cc2ccc(O)cc2)C(=O)N(C)[C@@H](C)C(=O)N[C@@H](CC(N)=O)C(=O)N2CCC[C@H]2C(=O)N[C@@H](CN)C(=O)N[C@@H](CC(C)C)C(=O)N2C[C@H](O)C[C@@H]2C(=O)N[C@@H](Cc2c[nH]c3ccccc23)C(=O)N[C@@H](CCN)C(=O)N[C@@H](Cc2cn(CC(=O)O)c3ccccc23)C(=O)N1C [Example 11159] ({CH2CO}-Y[NMeA]NP[Dap]L[d(cisHyp)]W[Dab][Trp(1-CH2COOH)][NMeNle][NMeNle]LCGE(X13)-OH; thioether N-14)
5 | 8.00 to 9.52 | CCCC[C@H]1C(=O)N(C)CC(=O)N[C@@H](CC(=O)O)C(=O)N[C@@H](C(C)C)C(=O)N(C)[C@@H](Cc2ccccc2)C(=O)N[C@@H](Cc2ccc(O)cc2)C(=O)N(C)[C@@H](CCC(=O)O)C(=O)N[C@@H](Cc2c[nH]c3ccccc23)C(=O)N[C@@H](Cc2ccc(O)cc2)C(=O)N[C@@H](CC(C)C)C(=O)N[C@H](C(=O)NCC(=O)NCC(=O)NCC(=O)N[C@@H](CCCCN)C(N)=O)CSCC(=O)N[C@@H](Cc2ccccc2)C(=O)N(C)[C@@H](Cc2ccccc2)C(=O)N1C [Example 3619] ({CH2CO}-F[NMeF][NMeNle][Sar]DV[NMeF]Y[NMeE]WYLCGGGK-NH2; thioether N-13)
6 | 5.80 to 7.00 | CCCCCCCCCCCCCCCC(=O)NCCCC[C@H](NC(=O)[C@H](CO)NC(=O)CNC(=O)[C@H](CO)NC(=O)CNC(=O)[C@@H]1CSCC(=O)N[C@@H](Cc2ccc(O)cc2)C(=O)N(C)[C@@H](C)C(=O)N[C@@H](CC(N)=O)C(=O)N2CCC[C@H]2C(=O)N[C@@H](CCN)C(=O)N[C@@H](CC(C)C)C(=O)N2C[C@H](O)C[C@H]2C(=O)N[C@@H](Cc2c[nH]c3ccccc23)C(=O)N[C@@H](CO)C(=O)N[C@@H](Cc2c[nH]c3ccccc23)C(=O)N(C)[C@@H](CCCC)C(=O)N(C)[C@@H](CCCC)C(=O)N[C@@H](CCCNC(=N)N)C(=O)N1)C(N)=O [Example 11023] ({CH2CO}-Y[NMeA]NP[Dab]L[Hyp]WSW[NMeNle][NMeNle]RCGSGSK(Palmitoyl)-NH2; thioether N-14)

More lines, now with the values behind:

Row | SMILES | pIC50
7 | CCCCCCCC[C@@H](NC(=O)CCC(=O)NCCCOCCOCCOCCCNC(=O)[C@@H]1CSCC(=O)N[C@@H](Cc2ccc(O)cc2)C(=O)N(C)[C@@H](C)C(=O)N[C@@H](CC(N)=O)C(=O)N2CCC[C@H]2C(=O)N[C@@H](CN)C(=O)N[C@@H](CC(C)C)C(=O)N2C[C@H](O)C[C@H]2C(=O)N[C@@H](Cc2c[nH]c3ccccc23)C(=O)N[C@@H](CCN)C(=O)N[C@@H](Cc2cn(CC(=O)O)c3ccccc23)C(=O)N(C)[C@@H](CCCC)C(=O)N(C)[C@@H](CCCC)C(=O)N[C@@H](CC(C)C)C(=O)N1)C(=O)O [Example 11135] ({CH2CO}-Y[NMeA]NP[Dap]L[Hyp]W[Dab][Trp(1-CH2COOH)][NMeNle][NMeNle]LC-X25; thioether N-14) | 7.00 to 8.00
8 | C#CC[C@H](NC(=O)CNC(=O)[C@@H]1CSCC(=O)N[C@@H](Cc2ccc(O)cc2)C(=O)N(C)[C@@H](C)C(=O)N[C@@H](CC(N)=O)C(=O)N2CCC[C@H]2C(=O)N[C@@H](CN)C(=O)N[C@@H](CC(C)C)C(=O)N2C[C@H](O)C[C@H]2C(=O)N[C@@H](Cc2c[nH]c3ccccc23)C(=O)N[C@@H](CO)C(=O)N[C@@H](Cc2cn(CC(=O)O)c3ccccc23)C(=O)N(C)[C@@H](CCCC)C(=O)N(C)[C@@H](CCCC)C(=O)N[C@@H](CCC(=O)O)C(=O)N1)C(N)=O [INT 1400I, ClAc-Tyr-mAla-Asn-Pro-Dap-Leu-Hyp-Trp-Ser-[(S)-2-amino-3-(1-(carboxymethyl)-1H-indol-3-yl)propanoic acid]-mNle-mNle-E-Cys-Gly-[(S)-propargylglycine]] ({CH2CO}-Y[NMeA]NP[Dap]L[Hyp]WS[Trp(1-CH2COOH)][NMeNle][NMeNle]ECG[Pra]-NH2; thioether N-14) | 7.00 to 8.00
9 | C#CC[C@H](NC(=O)CNC(=O)[C@@H]1CSCC(=O)N[C@@H](Cc2ccc(O)cc2)C(=O)N(C)[C@@H](C)C(=O)N[C@@H](CC(=O)O)C(=O)N2CCC[C@H]2C(=O)N[C@@H](Cc2c[nH]cn2)C(=O)N[C@@H](CCCCN)C(=O)N2C[C@H](O)C[C@H]2C(=O)N[C@@H](Cc2c[nH]c3ccccc23)C(=O)N[C@@H](CCCCN)C(=O)N[C@@H](Cc2cn(CC(=O)O)c3ccccc23)C(=O)N(C)[C@@H](CCCC)C(=O)N(C)[C@@H](CCCC)C(=O)N[C@@H](CCC(=O)O)C(=O)N1)C(=O)NCC(N)=O [INT 1400D] ({CH2CO}-Y[NMeA]DPHK[Hyp]WK[Trp(1-CH2COOH)][NMeNle][NMeNle]ECG[Pra]G-NH2; thioether N-14) | 8.00 to 9.52
10 | CCCC[C@H]1C(=O)N2CCC[C@@H]2C(=O)N[C@@H](CC(=O)O)C(=O)N[C@@H](C(C)C)C(=O)N(C)[C@@H](Cc2ccccc2)C(=O)N[C@@H](CCCN)C(=O)N2CCC[C@@H]2C(=O)N[C@@H](Cc2c[nH]c3ccccc23)C(=O)N[C@@H](Cc2ccc(O)cc2)C(=O)N[C@@H](CC(C)C)C(=O)N[C@H](C(=O)NCC(=O)N[C@@H](Cc2cn(CC[C@H](NC(=O)CCCCCCCCCCCCCCC(=O)O)C(=O)O)nn2)C(N)=O)CSCC(=O)N[C@@H](Cc2cc(F)c(F)c(F)c2)C(=O)N(C)[C@@H](Cc2ccccc2)C(=O)N1C [Example 14073] | 7.00 to 8.00
11 | C#CC[C@H](NC(=O)CNC(=O)[C@@H]1CSCC(=O)N[C@@H](Cc2ccc(O)cc2)C(=O)N(C)[C@@H](C)C(=O)N[C@@H](CC(=O)O)C(=O)N2CCC[C@H]2C(=O)N[C@@H](CN)C(=O)N[C@@H](CC(C)C)C(=O)N2C[C@H](O)C[C@H]2C(=O)N[C@@H](Cc2c[nH]c3ccccc23)C(=O)N[C@@H](CCN)C(=O)N[C@@H](Cc2cn(CC(=O)O)c3ccccc23)C(=O)N(C)[C@@H](CCCC)C(=O)N(C)[C@@H](CCCC)C(=O)N[C@@H](CCC(=O)O)C(=O)N1)C(=O)O [INT130AE] ({CH2CO}-Y[NMeA]DP[Dap]L[Hyp]W[Dab][Trp(1-CH2COOH)][NMeNle][NMeNle]ECG[Pra]-OH; thioether N-14) | 7.00 to 8.00
12 | C#CC[C@H](NC(=O)CNC(=O)[C@@H]1CSCC(=O)N[C@@H](Cc2ccc(O)cc2)C(=O)N(C)[C@@H](C)C(=O)N[C@@H](CC(N)=O)C(=O)N2CCC[C@H]2C(=O)N[C@@H](CN)C(=O)N[C@@H](CC(C)C)C(=O)N2C[C@H](O)C[C@H]2C(=O)N[C@@H](Cc2c[nH]c3ccccc23)C(=O)N[C@@H](CCN)C(=O)N[C@@H](Cc2cn(CC(=O)O)c3ccccc23)C(=O)N(C)[C@@H](CCCC)C(=O)N(C)[C@@H](CCCC)C(=O)N[C@@H](CC(C)C)C(=O)N1)C(=O)N[C@@H](CCC(=O)NCCCOCCOCCOCCCNC(=O)CC[C@H](NC(=O)CCCCCCCCCCCCCCCCC(=O)O)C(=O)O)C(=O)O [Example 11267] ({CH2CO}-Y[NMeA]NP[Dap]L[Hyp]W[Dab][Trp(1-CH2COOH)][NMeNle][NMeNle]LCG[Pra]E(X6)-OH; thioether N-14) | 7.00 to 8.00
13 | CCCC[C@H]1C(=O)N(C)[C@@H](CCCC)C(=O)N[C@@H](CCCNC(=N)N)C(=O)N[C@H](C(=O)NCC(=O)N[C@@H](CCN=[N+]=[N-])C(N)=O)CSCC(=O)N[C@@H](Cc2ccc(O)cc2)C(=O)N(C)[C@@H](C)C(=O)N[C@@H](CC(N)=O)C(=O)N2CCC[C@H]2C(=O)N[C@@H](CN)C(=O)N[C@@H](CC(C)C)C(=O)N2C[C@H](O)C[C@H]2C(=O)N[C@@H](Cc2c[nH]c3ccccc23)C(=O)N[C@@H](CO)C(=O)N[C@@H](Cc2csc3ccccc23)C(=O)N1C [INT 1300B] ({CH2CO}-Y[NMeA]NP[Dap]L[Hyp]WS[Bta][NMeNle][NMeNle]RCG[Aha]-NH2; thioether N-14) | 8.00 to 9.52
